The test system of this assay is P. falciparum (NF54 or 3D7 strain). Description: P. falciparum proliferation assay in infected human blood cells (SYBR Green). The following applies: Plasmodium falciparum; for EC50: Erythrocyte, read-out: EC50 (nM), inhibitory efficacy in delaying P. falciparum proliferation in infected human blood cells; for pEC50: read-out: EC50, P. falciparum Proliferation Assay. It counts as cell-based. How it is done:
Assay for P. falciparum Proliferation in Infected Human Blood Cells
Compounds of the invention can be assayed to measure their capacity to inhibit proliferation of P. falciparum parasitemia in infected red blood cells. This parasite proliferation assay measures the increase in parasite DNA content using a DNA intercalating dye, SYBR Green® (INVITROGEN®) which has a high affinity for double stranded DNA.
NF54 or 3D7 P. falciparum strain is grown in complete culturing media until parasitemia reaches 3% to 8% with O+ human erythrocytes. […] 20 μl of screening media is dispensed into 384 well assay plates. 50 nl of compounds of the invention (in DMSO), including antimalarial controls (mefloquine, pyrimethamine and artemisinin), are then transferred into the assay plates, as well as DMSO alone to serve as a negative control for inhibition. Then 30 μl of a suspension of a NF54 or 3D7 P. falciparum infected erythrocytes in screening media is dispensed into the assay plates such that the final hematocrit is 2.5% with a final parasitemia of 0.3%. The plates are placed in a 37° C. incubator for 72 hours in a low oxygen environment containing 93% N2, 4% CO2, and 3% O2 gas mixture. 10 μl of lysis buffer (saponin, triton-X, EDTA) containing a 10× solution of SYBR Green I® in RPMI media is dispensed into the plates. The plates are lidded and kept at room temperature overnight for the lysis of the infected red blood cells. The fluorescence intensity is measured (excitation 425 nm, emission 530 nm) using the Envision™ system (Perkin Elmer). The percentage inhibition of 50%, EC50, is calculated for each compound.

[1] abbreviates: infected human erythrocytes, 72 hours, SYBR Green fluorescence.

Each structure is given as a SMILES string. pEC50: −log10 of the molar value. Where two headings read alike, the source gives them in different places. A value given as a limit tells only on which side of the number the result lay.

As to `N#Cc1ccc(N(C2CC2)S(=O)(=O)c2ccn3ncc(-c4ccc(C(N)=O)cc4)c3c2)nc1` [Example 165, 4-(5-(N-(5-cyanopyridin-2-yl)-N-cyclopropylsulfamoyl)pyrazolo[1,5-a]pyridin-3-yl)benzamide], the EC50 under setting [1] was found to be 3 nM.
For `C[C@@H](N)C(=O)Nc1ccc(-c2cnn3ccc(C(=O)N(C)c4ccc(C#N)cc4)cc23)cc1` [Example 44, (R)-3-(4-(2-aminopropanamido)phenyl)-N-(4-cyanophenyl)-N-methylpyrazolo[1,5-a]pyridine-5-carboxamide], the pEC50 is above 8.30.
As to `CNC(=O)c1ccc(-c2cnn3ccc(C(=O)N(c4ccc(C#N)cn4)C4CCCC4)cc23)cc1` [Example 126, N-(5-Cyanopyridin-2-yl)-N-cyclopentyl-3-(4-(methylcarbamoyl)phenyl)pyrazolo[1,5-a]pyridine-5-carboxamide], under setting [1], the EC50 came out at 67 nM.
With `CNC(=O)c1ccc(-c2cnn3ccc(C(=O)N(c4ccc(Cl)cn4)C4CC4)cc23)cc1` [Example 124, N-(5-Chloropyridin-2-yl)-N-cyclopropyl-3-(4-(methylcarbamoyl)phenyl)pyrazolo[1,5-a]pyridine-5-carboxamide], under setting [1], the EC50 was determined as 19 nM.
Take `CCNC(=O)c1ccc(-c2cnn3ccc(C(=O)N(c4ccc(C#N)cn4)C4CC4)cc23)cc1` [Example 127, N-(5-Cyanopyridin-2-yl)-N-cyclopropyl-3-(4-(ethylcarbamoyl)phenyl)pyrazolo[1,5-a]pyridine-5-carboxamide]: the EC50 under setting [1] was determined as 49 nM.
For the molecule `N#Cc1ccc(N(CCO)C(=O)c2ccn3ncc(-c4ccc(C(N)=O)cc4)c3c2)cc1` [Example 105, 3-(4-Carbamoylphenyl)-N-(4-cyanophenyl)-N-(2-hydroxyethyl)pyrazolo[1,5-a]pyridine-5-carboxamide], the EC50 under setting [1] is 935 nM.
Turning to `CNC(=O)c1ccc(-c2cnn3ccc(C(=O)N(c4ccc(F)c(F)c4)C4CC4)cc23)cc1` [Example 130, N-Cyclopropyl-N-(3,4-difluorophenyl)-3-(4-(methylcarbamoyl)phenyl)pyrazolo[1,5-a]pyridine-5-carboxamide], under setting [1], the EC50 is 12 nM.
The same measure, in the same setting: the result for `CC(C)NC(=O)c1ccc(-c2cnn3ccc(C(=O)N(c4ccc(C#N)cn4)C4CC4)cc23)cc1` [Example 121, N-(5-Cyanopyridin-2-yl)-N-cyclopropyl-3-(4-(isopropylcarbamoyl)phenyl)pyrazolo[1,5-a]pyridine-5-carboxamide] reads 1160 nM; that for `N#Cc1ccc(N(C(=O)c2ccn3ncc(-c4ccc(C(N)=O)cc4)c3c2)C2CC2)nc1` [Example 120, 3-(4-Carbamoylphenyl)-N-(5-cyanopyridin-2-yl)-N-cyclopropylpyrazolo[1,5-a]pyridine-5-carboxamide], 9 nM.
The same measure, in the same setting: the figure for `CNC(=O)c1ccc(-c2cnn3ccc(C(=O)N(c4ccc(F)cn4)C4CC4)cc23)cc1` [Example 125, N-Cyclopropyl-N-(5-fluoropyridin-2-yl)-3-(4-(methylcarbamoyl)phenyl)pyrazolo[1,5a]pyridine-5-carboxamide] is 80 nM.
Same read-out and setting: the result for `CNC(=O)c1ccc(-c2cnn3ccc(C(=O)N(c4ccc(C(=O)O)cn4)C4CC4)cc23)cc1` [Example 128, 6-(N-Cyclopropyl-3-(4-(methylcarbamoyl)phenyl)pyrazolo[1,5-a]pyridine-5-carboxamido) nicotinic acid] reads 4270 nM.
For the molecule `CNC(=O)c1ccc(-c2cnn3ccc(C(=O)Nc4ccc(C#N)cn4)cc23)cc1` [Example 106, N-(5-Cyanopyridin-2-yl)-3-(4-(methylcarbamoyl)phenyl)pyrazolo[1,5-a]pyridine-5-carboxamide], the EC50 under setting [1] turned out to be 521 nM.
On the same count and under the same terms, the result for `CNC(=O)c1ccc(-c2cnn3ccc(S(=O)(=O)N(c4ccc(C#N)cn4)C4CC4)cc23)cc1` [Example 164, 4-(5-(N-(5-Cyanopyridin-2-yl)-N-cyclopropylsulfamoyl)pyrazolo[1,5-a]pyridin-3-yl)-N-methylbenzamide] reads 2 nM; that for `N#Cc1ccc(N(C(=O)c2ccn3ncc(-c4ccc(C(=O)NC5CC5)cc4)c3c2)C2CC2)nc1` [Example 123, N-(5-Cyanopyridin-2-yl)-N-cyclopropyl-3-(4-(cyclopropylcarbamoyl)phenyl)pyrazolo[1,5a]pyridine-5-carboxamide], 393 nM.
Same read-out and setting: the figure for `CN(C(=O)c1ccn2ncc(-c3ccc(C(=O)O)cc3)c2c1)c1ccc(C#N)cn1` [Example 101, 4-(5-((5-Cyanopyridin-2-yl)(methyl)carbamoyl)pyrazolo[1,5-a]pyridin-3-yl)benzoic acid] is 6160 nM.
`CN(C(=O)c1ccn2ncc(-c3cnc4[nH]ccc4c3)c2c1)c1ccc(C#N)cn1` [Example 53, N-(5-cyanopyridin-2-yl)-N-methyl-3-(1H-pyrrolo[2,3-b]pyridin-5-yl)pyrazolo[1,5-a]pyridine-5-carboxamide]: the pEC50 was above 8.30.
`CNC(=O)c1ccc(-c2cnn3ccc(C(=O)N(C)c4ccc(OC)nc4)cc23)cc1` [Example 122, N-(6-Methoxypyridin-3-yl)-N-methyl-3-(4-(methylcarbamoyl)phenyl)pyrazolo[1,5-a]pyridine-5-carboxamide]: under setting [1], the EC50 is above 10000 nM.
On the same count and under the same terms, the figure for `CNC(=O)c1ccc(-c2cnn3ccc(C(=O)N(c4ccc(C(N)=O)cn4)C4CC4)cc23)cc1` [Example 129, N-(5-Carbamoylpyridin-2-yl)-N-cyclopropyl-3-(4-(methylcarbamoyl)phenyl)pyrazolo[1,5-a]pyridine-5-carboxamide] is 2440 nM.
Take `CN(C(=O)c1ccn2ncc(-c3cnc4[nH]ccc4c3)c2c1)c1ccc(C#N)cc1` [Example 40, N-(4-cyanophenyl)-N-methyl-3-(1H-pyrrolo[2,3-b]pyridin-5-yl)pyrazolo[1,5-a]pyridine-5-carboxamide]: the pEC50 was above 8.30.
For `N#Cc1ccc(N(C(=O)c2ccn3ncc(-c4ccc(C(N)=O)nc4)c3c2)C2CC2)cc1` [Example 138, 3-(6-Carbamoylpyridin-3-yl)-N-(4-cyanophenyl)-N-cyclopropylpyrazolo[1,5-a]pyridine-5-carboxamide], the EC50 under setting [1] worked out at 10 nM.
With `N#Cc1ccc(N(C(=O)c2ccn3ncc(-c4ccc(C(N)=O)cc4)c3c2)C2CC2)cc1` [Example 134, 3-(4-carbamoylphenyl)-N-(4-cyanophenyl)-N-cyclopropylpyrazolo[1,5-a]pyridine-5-carboxamide], the EC50 under setting [1] is 4 nM.
`N#Cc1ccc(N(C(=O)c2ccn3ncc(-c4ccc(C(N)=O)cn4)c3c2)C2CC2)cc1` [Example 142, 3-(5-Carbamoylpyridin-2-yl)-N-(4-cyanophenyl)-N-cyclopropylpyrazolo[1,5-a]pyridine-5-carboxamide]: the EC50 (72 h) stood at 48 nM.
As to `N#Cc1ccc(N(C(=O)c2ccn3ncc(-c4ccc(C(=O)NC5COC5)cc4)c3c2)C2CC2)nc1` [Example 131, N-(5-Cyanopyridin-2-yl)-N-cyclopropyl-3-(4-(oxetan-3-ylcarbamoyl)phenyl)pyrazolo[1,5-a]pyridine-5-carboxamide], the EC50 under setting [1] was 324 nM.
Regarding `CN(C(=O)c1ccn2ncc(-c3ccc(N)nc3)c2c1)c1ccc(C#N)cc1` [Example 41, 3-(6-aminopyridin-3-yl)-N-(4-cyanophenyl)-N-methylpyrazolo[1,5-a]pyridine-5-carboxamide], the pEC50 was above 8.30.
With `N#Cc1ccc(N(C(=O)c2ccn3ncc(-c4ccc(C(N)=O)cn4)c3c2)C2CC2)nc1` [Example 139, 3-(5-Carbamoylpyridin-2-yl)-N-(5-cyanopyridin-2-yl)-N-cyclopropylpyrazolo[1,5-a]pyridine-5-carboxamide], the EC50 under setting [1] was found to be 30 nM.
Still for that read-out and setting: the result for `CNC(=O)c1ccc(-c2cnn3ccc(C(=O)N(c4ccc(C(F)(F)F)cn4)C4CC4)cc23)cc1` [Example 132, N-Cyclopropyl-3-(4-(methylcarbamoyl)phenyl)-N-(5-(trifluoromethyl)pyridin-2-yl)pyrazolo[1,5-a]pyridine-5-carboxamide] reads 29 nM.
As for `CN(C(=O)c1ccn2ncc(-c3cnc(N)nc3)c2c1)c1ccc(C#N)cc1` [Example 83, 3-(2-aminopyrimidin-5-yl)-N-(4-cyanophenyl)-N-methylpyrazolo[1,5-a]pyridine-5-carboxamide], the pEC50 was above 8.30.
As to `NC(=O)c1ccc(-c2cnn3ccc(C(=O)N(c4ccc(F)c(F)c4)C4CC4)cc23)cc1` [Example 135, 3-(4-Carbamoylphenyl)-N-cyclopropyl-N-(3,4-difluorophenyl)pyrazolo[1,5-a]pyridine-5-carboxamide], the EC50 under setting [1] is 1 nM.

The values above are taken from patent US9556169B2, “Compounds and compositions for the treatment of parasitic diseases” (NOVARTIS AG, priority 2012, dated 2017).
